In patent publication US11632953B2, “Method for controlling hematophagous or sap-feeding arthropods” (Board of Supervisors of Louisiana State University and …, priority 2016, dated 2023):
Where two headings read alike, the source gives them in different places.

Tests used:
[1] = target: Kir7.1 (Homo sapiens (Human), UniProt O60928); assay: thallium (Tl+) flux assay; type: cell-based, mammalian
[2] = target: AeKir1 (Aedes aegypti, UniProt L0EQS9); assay: thallium (Tl+) flux assay; type: cell-based; details: means (n = 3); read-out: IC50 μM (95% Cl)
[3] = target: AnKir1 (Anopheles gambiae, UniProt A0A075M2J8); assay: thallium (Tl+) flux assay; type: cell-based
Description: (§1) The thallium flux assay is an in vitro method of measuring conductance through a potassium ion channel. Potassium channels are also permeable to thallium ions. The modulation of a K^+ channel will thus increase or decrease thallium ion flow through the channel and thus, alter the observed fluorescence of a thallium-specific indicator dye.
After 1 hr incubation at room temperature, the dye-loading solution was washed from the plates and replaced with 20 μL/well of assay buffer. The plates were transferred to a Hamamatsu Functional Drug Screening System 6000 (FDSS6000; Hamamatsu, Tokyo, Japan), where 20 μL/well of each of the test compounds in assay buffer was added and allowed to incubate with the cells for 20 min. After incubation, a baseline recording was collected at 1 Hz for 10 s (excitation 470±20 nm, emission 540±30 nm); a thallium stimulus buffer was then added (10 μL/well), and data were then collected for an additional 4 min. […] To ensure the small-molecule vehicle DMSO had no direct effect on AnKir1-dependent Tl^+ flux, the assay's tolerance to different doses of DMSO was evaluated. The robustness and reproducibility of the assay was determined by comparing Tl^+ flux through tetracycline-induced and tetracycline-free cells. The Z′ value was calculated as:
Z′=1−(3SDp+3SDn)/|meanp+meann| where SD is standard deviation, and p and n are control and uninduced flux values, respectively. To compare the effect of DMSO on AnKir1-mediated Tl^+ flux, a one-way ANOVA was performed with a Tukey's multiple comparison test. Prism software (GraphPad Software) was used to generate CRC from Tl^+ flux. Half-inhibition concentration (IC50) values were calculated from fits using a four parameter logistic equation.
Test compounds were transferred to daughter, 384-well polypropylene plates (Greiner Bio-One, Monroe, N.C.) with an Echo555 liquid handler (Labcyte, Sunnyvale, Calif.), and then diluted into assay buffer to generate a 2× stock in 0.6% DMSO (0.3% final). […] Concentration-response curves (CRCs) were generated by screening compounds at 3-fold dilution series (1 nM-30 μM).
Tl^+ flux data were analyzed using Excel (Microsoft Corp, Redmond, Wash.) with XLfit add-in (IDBS, Guildford, Surrey, UK), OriginPro (Origin Lab, Northampton, Mass.), and GraphPad Prism (GraphPad Software, San Diego, Calif., USA) software. Raw data were opened in Excel and each data point in a given trace was divided by the first data point from that trace (static ratio) followed by subtraction of data points from control traces generated with vehicle controls. The slope of the fluorescence increase beginning 5 s after Tl^+ addition and ending 15 s after Tl^+ addition was calculated.
To perform Tl+ flux assays, stably transfected T-Rex-HEK-293 cells expressing AnKir1 channels were cultured overnight in 384-well plates (20,000 cells/20 μL/well), black-walled, clear-bottomed BD Pure Coat amine-coated plates (BD, Bedford, Mass.) with a plating media containing DMEM, 10% dialyzed FBS and 1 μg/mL tetracycline. […] Following 1 hr incubation at room temperature, the dye-loading solution was washed from the plates and replaced with 20 μL/well of assay buffer.

[4] = target: hKir2.1 (Homo sapiens (Human), UniProt P63252); assay: thallium (Tl+) flux assay; type: cell-based
[5] = test system: isolated tick salivary gland; assay: fluid secretion (salivation) in the isolated tick salivary gland, modified Ramsay assay; design: species or system Amblyomma americanum; details: isolated tick salivary gland
[6] = target: Kir4.1 (Homo sapiens (Human), UniProt P78508); assay: thallium (Tl+) flux assay; type: cell-based, mammalian; details: means (n = 3); read-out: IC50 μM (95% Cl)
Description: as §1
(§2) Stably transfected T-Rex-HEK-293-AnKir1 cells were cultured overnight in 384-well plates in media containing DMEM, 10% dialyzed FBS, and 1 μg/mL tetracycline to induce channel expression. The next day the cell culture medium was replaced with a dye-loading solution containing assay buffer (Hanks Balanced Salt Solution with 20 mM HEPES, pH 7.3), 0.01% (w/v) Pluronic F-127 (Life Technologies, Carlsbad, Calif.), and 1.2 μM of the thallium-sensitive dye Thallos-AM (TEFlabs, Austin, Tex.). After 1 hr incubation at room temperature, the dye-loading solution was washed from the plates and replaced with 20 μL/well of assay buffer. […] To ensure the small-molecule vehicle DMSO had no direct effect on AnKir1-dependent Tl^+ flux, the assay's tolerance to different doses of DMSO was evaluated. The robustness and reproducibility of the assay was determined by comparing Tl^+ flux through tetracycline-induced and tetracycline-free cells. The Z′ value was calculated as:
(§3) Z′=1−(3SDp+3SDn)/|meanp+meann| where SD is standard deviation, and p and n are control and uninduced flux values, respectively. […] Half-inhibition concentration (IC50) values were calculated from fits using a four parameter logistic equation. […]
(§4) Tl^+ flux data were analyzed using Excel (Microsoft Corp, Redmond, Wash.) with XLfit add-in (IDBS, Guildford, Surrey, UK), OriginPro (Origin Lab, Northampton, Mass.), and GraphPad Prism (GraphPad Software, San Diego, Calif., USA) software. […] The slope of the fluorescence increase beginning 5 s after Tl^+ addition and ending 15 s after Tl^+ addition was calculated.

[7] = target: Kir6.2/SUR1 (Homo sapiens (Human), UniProt Q09428+Q14654); assay: thallium (Tl+) flux assay; type: cell-based, mammalian
Description: as §1, §2, §3, §4

[8] = means (n = 3), read-out: IC50 μM (95% Cl)
[9] = means (n = 3), selectivity panel, read-out: IC50 μM (95% Cl)

Chain of AnKir1 (A0A075M2J8 1-555): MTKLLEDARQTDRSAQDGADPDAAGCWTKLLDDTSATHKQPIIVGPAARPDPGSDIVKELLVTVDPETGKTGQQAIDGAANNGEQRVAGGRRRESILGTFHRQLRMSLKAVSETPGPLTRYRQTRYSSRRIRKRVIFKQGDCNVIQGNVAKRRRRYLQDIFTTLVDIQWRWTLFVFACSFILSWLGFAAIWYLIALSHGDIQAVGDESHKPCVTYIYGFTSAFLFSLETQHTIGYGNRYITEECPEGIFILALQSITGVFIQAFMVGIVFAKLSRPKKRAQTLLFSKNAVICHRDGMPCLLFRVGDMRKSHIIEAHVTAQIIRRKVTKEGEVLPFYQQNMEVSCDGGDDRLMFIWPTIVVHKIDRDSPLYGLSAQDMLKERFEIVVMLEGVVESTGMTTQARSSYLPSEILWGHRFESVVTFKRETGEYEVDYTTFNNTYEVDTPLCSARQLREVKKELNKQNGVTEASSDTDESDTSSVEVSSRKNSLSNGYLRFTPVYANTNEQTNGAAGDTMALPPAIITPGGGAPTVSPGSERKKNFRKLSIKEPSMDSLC
Chain of hKir2.1 (P63252 whole entry): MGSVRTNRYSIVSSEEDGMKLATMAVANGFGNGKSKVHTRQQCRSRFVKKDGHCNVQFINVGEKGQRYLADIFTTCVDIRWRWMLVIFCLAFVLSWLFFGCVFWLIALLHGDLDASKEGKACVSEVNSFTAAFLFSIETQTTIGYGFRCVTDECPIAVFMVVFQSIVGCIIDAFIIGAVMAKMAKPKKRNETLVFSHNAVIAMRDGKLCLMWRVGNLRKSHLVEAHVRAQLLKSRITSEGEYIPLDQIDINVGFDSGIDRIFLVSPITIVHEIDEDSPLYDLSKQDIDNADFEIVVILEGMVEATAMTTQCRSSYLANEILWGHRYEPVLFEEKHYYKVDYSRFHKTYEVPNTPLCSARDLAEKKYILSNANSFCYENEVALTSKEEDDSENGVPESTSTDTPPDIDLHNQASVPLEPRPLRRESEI
Chain of Kir7.1 (O60928 whole entry): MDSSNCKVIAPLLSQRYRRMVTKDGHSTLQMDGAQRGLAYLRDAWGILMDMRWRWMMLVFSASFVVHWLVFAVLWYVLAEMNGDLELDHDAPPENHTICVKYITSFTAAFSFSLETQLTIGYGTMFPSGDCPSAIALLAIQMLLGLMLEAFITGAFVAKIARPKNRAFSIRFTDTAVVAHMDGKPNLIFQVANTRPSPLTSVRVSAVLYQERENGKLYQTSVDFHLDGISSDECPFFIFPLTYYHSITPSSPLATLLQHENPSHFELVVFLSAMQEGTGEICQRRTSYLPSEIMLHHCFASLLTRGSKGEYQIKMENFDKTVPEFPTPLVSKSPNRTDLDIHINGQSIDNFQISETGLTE
Chain of Kir6.2/SUR1 (Q14654 whole entry): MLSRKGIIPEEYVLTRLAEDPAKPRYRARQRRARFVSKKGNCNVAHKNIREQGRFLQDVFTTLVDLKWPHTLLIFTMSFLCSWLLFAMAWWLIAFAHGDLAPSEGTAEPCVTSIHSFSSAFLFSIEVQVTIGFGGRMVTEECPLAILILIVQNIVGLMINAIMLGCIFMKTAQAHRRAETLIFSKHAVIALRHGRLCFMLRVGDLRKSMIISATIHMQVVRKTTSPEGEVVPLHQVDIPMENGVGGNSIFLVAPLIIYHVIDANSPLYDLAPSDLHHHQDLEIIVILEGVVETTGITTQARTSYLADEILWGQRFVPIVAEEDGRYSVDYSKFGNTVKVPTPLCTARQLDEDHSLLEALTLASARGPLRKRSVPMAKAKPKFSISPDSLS
Chain of Kir6.2/SUR1 (Q09428 whole entry): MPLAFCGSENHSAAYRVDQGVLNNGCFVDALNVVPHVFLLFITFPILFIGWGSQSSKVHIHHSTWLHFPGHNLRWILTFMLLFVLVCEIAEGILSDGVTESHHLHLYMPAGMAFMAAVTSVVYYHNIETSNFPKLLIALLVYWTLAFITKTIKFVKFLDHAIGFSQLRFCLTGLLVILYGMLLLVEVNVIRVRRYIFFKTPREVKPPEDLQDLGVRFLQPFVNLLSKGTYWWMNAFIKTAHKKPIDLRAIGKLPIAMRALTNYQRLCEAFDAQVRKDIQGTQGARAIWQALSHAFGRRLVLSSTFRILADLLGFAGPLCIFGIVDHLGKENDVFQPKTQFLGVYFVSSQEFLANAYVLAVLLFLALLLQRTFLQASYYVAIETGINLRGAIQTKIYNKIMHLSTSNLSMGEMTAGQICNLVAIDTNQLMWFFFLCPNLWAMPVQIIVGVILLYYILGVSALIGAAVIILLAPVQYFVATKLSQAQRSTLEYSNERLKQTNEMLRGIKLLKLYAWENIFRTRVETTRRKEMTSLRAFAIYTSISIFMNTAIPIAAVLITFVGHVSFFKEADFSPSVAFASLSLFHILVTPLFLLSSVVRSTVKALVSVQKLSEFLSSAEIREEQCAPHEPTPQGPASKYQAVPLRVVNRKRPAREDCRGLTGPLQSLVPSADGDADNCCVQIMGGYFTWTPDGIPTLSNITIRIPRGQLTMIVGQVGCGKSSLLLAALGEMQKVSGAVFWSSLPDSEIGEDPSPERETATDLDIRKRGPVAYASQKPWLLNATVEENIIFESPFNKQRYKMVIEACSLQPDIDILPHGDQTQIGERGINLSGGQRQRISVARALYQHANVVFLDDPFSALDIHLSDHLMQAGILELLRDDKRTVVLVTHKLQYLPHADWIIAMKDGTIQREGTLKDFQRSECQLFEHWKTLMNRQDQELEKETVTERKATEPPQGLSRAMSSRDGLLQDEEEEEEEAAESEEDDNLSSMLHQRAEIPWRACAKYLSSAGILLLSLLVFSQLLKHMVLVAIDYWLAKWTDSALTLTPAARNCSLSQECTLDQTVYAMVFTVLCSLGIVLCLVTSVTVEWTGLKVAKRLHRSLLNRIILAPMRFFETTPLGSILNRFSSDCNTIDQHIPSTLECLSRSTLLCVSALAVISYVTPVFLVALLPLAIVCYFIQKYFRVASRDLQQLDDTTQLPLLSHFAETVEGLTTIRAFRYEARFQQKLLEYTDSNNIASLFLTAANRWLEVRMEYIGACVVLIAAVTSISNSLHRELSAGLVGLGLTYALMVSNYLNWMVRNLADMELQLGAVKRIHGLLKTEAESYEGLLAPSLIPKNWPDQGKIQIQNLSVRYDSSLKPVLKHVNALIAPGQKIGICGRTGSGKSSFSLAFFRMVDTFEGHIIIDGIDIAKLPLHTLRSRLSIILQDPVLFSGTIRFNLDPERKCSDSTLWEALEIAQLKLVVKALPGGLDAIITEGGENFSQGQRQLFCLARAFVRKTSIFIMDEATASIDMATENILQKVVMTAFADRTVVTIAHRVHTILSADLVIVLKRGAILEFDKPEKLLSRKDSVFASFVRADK
Chain of Kir4.1 (P78508 whole entry): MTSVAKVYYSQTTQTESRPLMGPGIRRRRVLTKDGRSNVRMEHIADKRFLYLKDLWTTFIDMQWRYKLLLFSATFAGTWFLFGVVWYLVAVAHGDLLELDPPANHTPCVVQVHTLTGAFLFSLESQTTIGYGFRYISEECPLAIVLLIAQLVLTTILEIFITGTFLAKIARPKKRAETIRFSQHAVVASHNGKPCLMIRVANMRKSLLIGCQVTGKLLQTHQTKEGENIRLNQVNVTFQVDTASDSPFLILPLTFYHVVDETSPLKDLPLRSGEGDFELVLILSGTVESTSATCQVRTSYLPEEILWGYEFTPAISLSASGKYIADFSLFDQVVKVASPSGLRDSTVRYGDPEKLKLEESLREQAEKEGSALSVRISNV
Chain of AeKir1 (L0EQS9 1-486): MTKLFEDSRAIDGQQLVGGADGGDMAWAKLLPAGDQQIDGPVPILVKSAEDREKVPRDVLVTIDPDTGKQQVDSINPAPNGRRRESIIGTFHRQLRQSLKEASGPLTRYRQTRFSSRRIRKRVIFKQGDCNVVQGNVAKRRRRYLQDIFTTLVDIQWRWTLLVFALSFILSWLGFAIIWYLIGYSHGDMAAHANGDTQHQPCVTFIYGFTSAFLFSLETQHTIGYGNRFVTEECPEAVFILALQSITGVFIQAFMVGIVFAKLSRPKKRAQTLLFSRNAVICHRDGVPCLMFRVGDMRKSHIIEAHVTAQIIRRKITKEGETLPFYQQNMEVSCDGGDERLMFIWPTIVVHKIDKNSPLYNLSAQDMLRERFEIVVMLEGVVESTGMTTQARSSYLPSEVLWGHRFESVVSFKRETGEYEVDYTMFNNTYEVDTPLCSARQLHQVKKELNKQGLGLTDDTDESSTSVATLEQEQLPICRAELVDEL

SMILES: O=C(Cn1nc(C(F)(F)F)c2c1CCCC2)N1CCCc2ccccc21 [VU041, 1-(3,4-dihydroquinolin-1(2H)-yl)-2-(3-(trifluoromethyl)-4,5,6,7-tetrahydro-1H-indazol-1-yl)ethan-1-one]
- inhibition at 30 µM ([1]; concentration of 30 μM): < 10%
- IC50 [1, 8]: > 30 µM
- IC50 [2]: 1.7 µM
- IC50 ([3]; SAR libraries, read-out: AnKir1 IC50): 2.3 µM
- IC50 [3, 9]: 2.5 µM
- IC50 ([4]; SAR libraries, read-out: hKir2.1 IC50): 11.3 µM
- IC50 [4, 9]: 12.7 µM
- reduction of salivary output / saliva secretion compared to control [5]: approximately 60%
- IC50 [6]: > 30 µM
- inhibition at 30 µM ([7]; concentration of 30 μM): < 10%
- IC50 [7, 8]: > 30 µM

SMILES: O=C(Cn1nc(C(F)(F)F)c2c1CCCC2)NC1CCC1 [VU937]
- AnKir1 IC50 (μM) ([3]; SAR libraries, listed as 18): inactive
- AnKir1 IC50 (μM) ([3]; SAR libraries, listed as Compound 18): not tolerated
